In ChEMBL document CHEMBL3867464, “Novel substituted aminothiazoles as potent and selective anti-hepatocellular carcinoma agents” (Bioorg Med Chem Lett, 2016):
≈ marks a conversion by molar mass, not a printed value.

Key:
Huh-7 [1] = assay: Selectivity index, ratio of CC50 for human PH5CH cells to CC50 for human HuH7 cells; format: functional
Huh-7 [2] = assay: Selectivity index, ratio of CC50 for human THLE2 cells to CC50 for human HuH7 cells; format: functional
[3] = Cytotoxicity against human HuH7 cells assessed as decrease in cell viability after 72 hrs by MTT assay; format: functional; conditions: Huh-7, 72 h
[4] = Cytotoxicity against human PH5CH cells assessed as decrease in cell viability after 72 hrs by MTT assay; format: toxicity, cell-based
[5] = Cytotoxicity against human THLE2 cells assessed as decrease in cell viability after 72 hrs by MTT assay; format: toxicity, cell-based; conditions: thle-2, 72 h
[6] = Solubility of the compound in ethyl acetate solution; format: physicochemical
[7] = Solubility of the compound in methylene chloride solution; format: physicochemical
[8] = Solubility of the compound in ethanol solution; format: physicochemical
[9] = Drug metabolism in human liver microsomes assessed as CYP450-mediated 4-(pyridin-2-yl)-2-(pyrimidin-2-ylamino)thiazole-5-carboxylic acid formation measured at 60 mins; format: ADME; conditions: 1 h
[10] = Aqueous solubility of the compound at pH 4; format: physicochemical; conditions: buffer
[11] = Cmax in CD-1 mouse at 10 mg/kg, po; format: ADME, organism-based; design: dose 10 mg/kg, route oral; conditions: in vivo
[12] = Drug metabolism in mouse liver microsomes assessed as CYP450-mediated 4-(pyridin-2-yl)-2-(pyrimidin-2-ylamino)thiazole-5-carboxylic acid formation measured at 60 mins; format: ADME; conditions: 1 h
[13] = Oral bioavailability in CD-1 mouse at 10 mg/kg; format: ADME, organism-based; conditions: in vivo
[14] = Tmax in CD-1 mouse at 2 mg/kg, iv; format: ADME, organism-based; conditions: in vivo
[15] = Tmax in CD-1 mouse at 10 mg/kg, po; format: ADME, organism-based; conditions: in vivo
[16] = Stability in mouse liver microsomes assessed as parent compound remaining measured at 60 mins; format: ADME; conditions: read-out: Stability
[17] = Stability in human liver microsomes assessed as parent compound remaining measured at 60 mins; format: ADME; conditions: read-out: Stability
[18] = AUClast in CD-1 mouse at 2 mg/kg, iv; format: ADME, organism-based; conditions: in vivo
[19] = AUClast in CD-1 mouse at 10 mg/kg, po; format: ADME, organism-based; conditions: in vivo
[20] = Half life in CD-1 mouse at 10 mg/kg, po; format: ADME, organism-based; conditions: in vivo
[21] = Aqueous solubility of the compound at pH 7.4; format: physicochemical; conditions: buffer
[22] = Half life in CD-1 mouse at 2 mg/kg, iv; format: ADME, organism-based; conditions: in vivo
[23] = Volume of distribution at steady state in CD-1 mouse at 2 mg/kg, iv; format: ADME, organism-based; conditions: in vivo, read-out: Vdss
[24] = Drug level in mouse liver microsomes treated with IHVR-04042 assessed as CYP450-mediated compound formation measured at 60 mins; format: ADME; conditions: 1 h
[25] = Drug level in human liver microsomes treated with IHVR-04042 assessed as CYP450-mediated compound formation measured at 60 mins; format: ADME; conditions: 1 h
[26] = Drug level in mouse liver microsomes treated with isopropyl 4-(pyrazin-2-yl)-2-(pyrimidin-2-ylamino)thiazole-5-carboxylate assessed as CYP450-mediated compound formation measured at 60 mins; format: ADME; conditions: 1 h
[27] = Drug level in human liver microsomes treated with isopropyl 4-(pyrazin-2-yl)-2-(pyrimidin-2-ylamino)thiazole-5-carboxylate assessed as CYP450-mediated compound formation measured at 60 mins; format: ADME; conditions: 1 h
[28] = Tmax in CD-1 mouse at 2.5 mg/kg, po; format: ADME, organism-based; conditions: in vivo
[29] = Half life in CD-1 mouse at 1 mg/kg, iv; format: ADME, organism-based; conditions: in vivo
[30] = Oral bioavailability in CD-1 mouse at 2.5 mg/kg; format: ADME, organism-based; conditions: in vivo
[31] = AUClast in CD-1 mouse at 1 mg/kg, iv; format: ADME, organism-based; conditions: in vivo
[32] = Volume of distribution at steady state in CD-1 mouse at 1 mg/kg, iv; format: ADME, organism-based; conditions: in vivo, read-out: Vdss
[33] = Cmax in CD-1 mouse at 2.5 mg/kg, po; format: ADME, organism-based; design: dose 2.5 mg/kg, route oral; conditions: in vivo
[34] = Drug metabolism in mouse liver microsomes assessed as CYP450-mediated 4-(pyrazin-2-yl)-2-(pyrimidin-2-ylamino)thiazole-5-carboxylic acid formation measured at 60 mins; format: ADME; conditions: 1 h
[35] = Drug uptake in CD-1 mouse liver at 2.5 mg/kg, po; format: ADME, organism-based; conditions: in vivo
[36] = Tmax in CD-1 mouse at 1 mg/kg, iv; format: ADME, organism-based; conditions: in vivo
[37] = Cytotoxicity against human hepatic cancer cells derived from HCC patient assessed as change in cell proliferation by measuring response rate at 1 uM after 48 hrs by Ki-67 immunostaining based assay; format: functional, Cancer cell lines
[38] = AUClast in CD-1 mouse at 2.5 mg/kg, po; format: ADME, organism-based; conditions: in vivo
[39] = Drug metabolism in human liver microsomes assessed as CYP450-mediated 4-(pyrazin-2-yl)-2-(pyrimidin-2-ylamino)thiazole-5-carboxylic acid formation measured at 60 mins; format: ADME; conditions: 1 h

CC(C)OC(=O)c1sc(Nc2ncccn2)nc1-c1ncccn1
Selectivity Index (Huh-7 [1]): 30.96 | Selectivity Index (Huh-7 [2]): 30.96 | CC50 [3]: 1.62 µM | CC50 [4]: 50 µM | CC50 [5]: 50 µM

CCOC(=O)c1sc(Nc2ncccn2)nc1-c1cnccn1
Selectivity Index (Huh-7 [1]): 85.03 | Selectivity Index (Huh-7 [2]): 80.06 | CC50 [3]: 0.59 µM | CC50 [4]: 50 µM | CC50 [5]: 47.1 µM

CC(C)OC(=O)OCN(c1ncccn1)c1nc(-c2cnccn2)c(C(=O)OC(C)C)s1
solubility [6]: Soluble | solubility [7]: Soluble | Selectivity Index (Huh-7 [1]): 528.17 | Selectivity Index (Huh-7 [2]): 528.17 | CC50 [3]: 0.095 µM | solubility [8]: Soluble | CC50 [4]: 50 µM | CC50 [5]: 50 µM

c1ccc(-c2csc(Nc3ncccn3)n2)nc1
Selectivity Index (Huh-7 [1]): 40.294 | Selectivity Index (Huh-7 [2]): 35.45 | CC50 [3]: 1.1 µM

CCOC(=O)Cc1sc(Nc2ncccn2)nc1-c1ccccn1
Selectivity Index (Huh-7 [1]): 35.94 | Selectivity Index (Huh-7 [2]): 35.94 | CC50 [3]: 1.39 µM | CC50 [4]: 50 µM | CC50 [5]: 50 µM

CCOCc1sc(NCc2ncccn2)nc1-c1ccccn1
Selectivity Index (Huh-7 [2]): 1.11 | CC50 [3]: 44.8 µM | CC50 [4]: 50 µM | CC50 [5]: 49.6 µM

CCOC(=O)c1sc(Nc2ncccn2)nc1-c1ccccn1
Drug metabolism [9]: Metabolite_Detected | solubility [10]: 112.84 µM (≈ 36.9 µg/mL) | Cmax [11]: 94.1 ng/mL | Drug metabolism [12]: Metabolite_Detected | bioavailability [13]: 10% | Tmax [14]: 0 h | Tmax [15]: 34.8 min | Selectivity Index (Huh-7 [1]): 214.328 | remaining at 1 h [16]: 43.3% | Selectivity Index (Huh-7 [2]): 253.954 | CC50 [3]: 0.18 µM | remaining at 1 h [17]: 63.1% | AUClast [18]: 224 ng·mL·h | AUClast [19]: 19.5 ng·mL·h | half-life [20]: 115 min | solubility [21]: 23.84 µM (≈ 7.8 µg/mL) | half-life [22]: 14.4 min | Vd [23]: 1.45 L/kg

CCOC(=O)c1sc(Nc2ncccn2)nc1-c1cc(C(F)(F)F)ccn1
Selectivity Index (Huh-7 [1]): 56.24 | Selectivity Index (Huh-7 [2]): 90.32 | CC50 [3]: 0.17 µM | CC50 [4]: 9.34 µM | CC50 [5]: 15 µM

O=C(O)c1sc(Nc2ncccn2)nc1-c1ccccn1
Drug metabolism [24]: Metabolite_Detected | Drug metabolism [25]: Metabolite_Detected

CCOC(=O)c1sc(Nc2ncccn2)nc1-c1ncccc1C
Selectivity Index (Huh-7 [2]): 1.07 | CC50 [3]: 46.1 µM | CC50 [4]: 50 µM | CC50 [5]: 49.1 µM

O=C(O)CCc1sc(Nc2ncccn2)nc1-c1ccccn1
Selectivity Index (Huh-7 [1]): 1.25 | Selectivity Index (Huh-7 [2]): 1.87 | CC50 [3]: 14.1 µM | CC50 [4]: 17.7 µM | CC50 [5]: 26.4 µM

CCOC(=O)CCc1sc(Nc2ncccn2)nc1-c1ccccn1
Selectivity Index (Huh-7 [1]): 4.93 | Selectivity Index (Huh-7 [2]): 5.1 | CC50 [3]: 2.05 µM | CC50 [4]: 10.1 µM | CC50 [5]: 10.5 µM

CC(C)OC(=O)c1sc(N(COP(=O)(OC(C)(C)C)OC(C)(C)C)c2ncccn2)nc1-c1ccccn1
solubility [6]: Soluble | solubility [7]: Soluble | Selectivity Index (Huh-7 [1]): 131.93 | Selectivity Index (Huh-7 [2]): 111.42 | CC50 [3]: 0.38 µM | solubility [8]: Soluble | CC50 [4]: 50 µM | CC50 [5]: 42.2 µM

O=C(O)c1sc(Nc2ncccn2)nc1-c1cnccn1
Drug metabolism [26]: Metabolite_Detected | Drug metabolism [27]: Metabolite_Detected

CCOC(=O)c1sc(NCc2ncccn2)nc1-c1ccccn1
Selectivity Index (Huh-7 [1]): 1 | Selectivity Index (Huh-7 [2]): 1 | CC50 [3]: 50 µM

c1ccc(-c2csc(NCc3ncccn3)n2)nc1
Selectivity Index (Huh-7 [2]): 1.22 | CC50 [3]: 40.5 µM | CC50 [4]: 49.8 µM | CC50 [5]: 49.6 µM

CC(C)OC(=O)c1sc(N(COP(=O)(OC(C)(C)C)OC(C)(C)C)c2ncccn2)nc1-c1cnccn1
solubility [6]: Soluble | solubility [7]: Soluble | Selectivity Index (Huh-7 [1]): 51.28 | Selectivity Index (Huh-7 [2]): 51.28 | CC50 [3]: 0.98 µM | solubility [8]: Soluble | CC50 [4]: 50 µM | CC50 [5]: 50 µM

COCCOCN(c1ncccn1)c1nc(-c2cnccn2)c(C(=O)OC(C)C)s1
solubility [6]: Soluble | solubility [7]: Soluble | Selectivity Index (Huh-7 [1]): 1 | CC50 [3]: 50 µM | solubility [8]: Soluble | CC50 [4]: 50 µM | CC50 [5]: 50 µM

CCOC(=O)Cc1sc(NCc2ncccn2)nc1-c1ccccn1
Selectivity Index (Huh-7 [1]): 1.01 | Selectivity Index (Huh-7 [2]): 1.01 | CC50 [3]: 49.4 µM | CC50 [4]: 50 µM | CC50 [5]: 50 µM

CC(C)OC(=O)c1sc(Nc2ncccn2)nc1-c1ccccn1
Selectivity Index (Huh-7 [2]): 123.39 | CC50 [3]: 0.41 µM | CC50 [4]: 49.8 µM | CC50 [5]: 50 µM

CCOCc1sc(Nc2ncccn2)nc1-c1ccccn1
Selectivity Index (Huh-7 [1]): 12.23 | Selectivity Index (Huh-7 [2]): 13.08 | CC50 [3]: 3.19 µM | CC50 [4]: 39 µM | CC50 [5]: 41.8 µM

CC(C)OC(=O)c1sc(Nc2ncccn2)nc1-c1ccncn1
Selectivity Index (Huh-7 [1]): 41.24 | Selectivity Index (Huh-7 [2]): 38.11 | CC50 [3]: 1.21 µM | CC50 [4]: 50 µM | CC50 [5]: 46.2 µM

CC(C)OC(=O)c1sc(Nc2ncccn2)nc1-c1cnccn1
Tmax [28]: 26.4 min | solubility [10]: 6.35 µM (≈ 2.17 µg/mL) | half-life [29]: 26.4 min | bioavailability [30]: 15.2% | AUClast [31]: 142 ng·mL·h | Vd [32]: 3.49 L/kg | Selectivity Index (Huh-7 [1]): 471.7 | remaining at 1 h [16]: 36.2% | Selectivity Index (Huh-7 [2]): 471.7 | CC50 [3]: 0.11 µM | Cmax [33]: 48.7 ng/mL | remaining at 1 h [17]: 70.9% | Drug metabolism [34]: Metabolite_Detected | Drug uptake [35]: 33 ng/g | Tmax [36]: 0 h | Activity [37]: 38% | CC50 [4]: 50 µM | AUClast [38]: 21.6 ng·mL·h | Drug metabolism [39]: Metabolite_Detected | CC50 [5]: 50 µM | solubility [21]: 5.2 µM (≈ 1.78 µg/mL)

CCOC(=O)c1sc(Nc2ncccn2)nc1-c1ccncn1
Selectivity Index (Huh-7 [1]): 24.97 | Selectivity Index (Huh-7 [2]): 25.46 | CC50 [3]: 1.6 µM | CC50 [4]: 40 µM | CC50 [5]: 40.8 µM
